Data on three substances can be found in publication PMC12343078, “PeptideMiner—neuropeptide discovery across the animal kingdom” (GigaScience, 2025).

“Also recorded” adds a separate entry of the source. Positions of bridges follow the written chain, without caps; N, C: chain ends. Non-standard residues stand in square brackets, D forms with d. Chains are numbered I, II in the order given. No end group written: not given here. Gla = N[C@@H](CC(C(=O)O)C(=O)O)C(=O)O

The assay deals with T1, human insulin receptor-B (hIR-B) (Homo sapiens, UniProt P06213).
T1 construct: expressed in transfected cells; lysate captured on an anti-IR antibody-coated plate
T1 sequence (P06213 28-758 limits assumed): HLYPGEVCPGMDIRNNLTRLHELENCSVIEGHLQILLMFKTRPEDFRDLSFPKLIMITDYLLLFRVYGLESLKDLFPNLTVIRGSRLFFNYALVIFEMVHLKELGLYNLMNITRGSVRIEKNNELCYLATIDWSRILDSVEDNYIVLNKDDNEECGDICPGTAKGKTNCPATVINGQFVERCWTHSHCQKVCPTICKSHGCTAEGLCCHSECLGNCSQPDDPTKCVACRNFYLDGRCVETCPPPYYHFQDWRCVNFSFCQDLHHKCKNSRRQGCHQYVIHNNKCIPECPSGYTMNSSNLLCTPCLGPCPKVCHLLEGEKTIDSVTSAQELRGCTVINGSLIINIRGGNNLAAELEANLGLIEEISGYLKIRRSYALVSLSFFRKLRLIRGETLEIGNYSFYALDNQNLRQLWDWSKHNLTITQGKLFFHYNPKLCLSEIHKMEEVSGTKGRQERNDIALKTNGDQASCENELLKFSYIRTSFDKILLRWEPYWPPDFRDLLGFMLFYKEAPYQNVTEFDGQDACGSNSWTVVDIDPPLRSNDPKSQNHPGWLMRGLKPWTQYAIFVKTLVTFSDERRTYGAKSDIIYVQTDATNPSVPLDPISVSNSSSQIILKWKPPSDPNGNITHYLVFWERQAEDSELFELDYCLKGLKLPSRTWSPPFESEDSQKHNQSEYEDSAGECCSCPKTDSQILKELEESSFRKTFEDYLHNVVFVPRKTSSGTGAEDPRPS
T1 sequence (P06213 763-1382 limits assumed): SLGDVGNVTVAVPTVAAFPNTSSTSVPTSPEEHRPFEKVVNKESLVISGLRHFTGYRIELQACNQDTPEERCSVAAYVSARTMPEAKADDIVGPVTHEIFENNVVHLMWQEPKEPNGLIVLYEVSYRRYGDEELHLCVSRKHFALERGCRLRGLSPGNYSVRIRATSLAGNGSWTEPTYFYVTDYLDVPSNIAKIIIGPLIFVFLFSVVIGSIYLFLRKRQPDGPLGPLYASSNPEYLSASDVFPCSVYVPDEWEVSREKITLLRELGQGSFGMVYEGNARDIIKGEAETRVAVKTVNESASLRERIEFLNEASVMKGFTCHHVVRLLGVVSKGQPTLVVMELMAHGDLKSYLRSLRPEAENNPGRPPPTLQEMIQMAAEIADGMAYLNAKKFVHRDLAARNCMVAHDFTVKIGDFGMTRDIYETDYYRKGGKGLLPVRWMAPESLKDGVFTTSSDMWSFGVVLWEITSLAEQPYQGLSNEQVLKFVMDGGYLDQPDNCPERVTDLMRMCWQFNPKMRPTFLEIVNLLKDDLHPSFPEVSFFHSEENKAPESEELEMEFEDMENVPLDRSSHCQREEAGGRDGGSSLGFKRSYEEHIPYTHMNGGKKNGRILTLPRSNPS
Nature of the assay: Competition binding to hIR-B against Eu-labeled human insulin. The method, then:
Receptor binding was measured as described previously. […] Cells were serum-starved for 4 hours before lysis. Lysates were captured in a 96-well plate previously coated with anti-IR antibody. […] After washing, time-resolved fluorescence was measured using 340-nm excitation and 612-nm emission filters with the BMG Lab Technologies Polarstar fluorometer.
“I: NSDTPKHRCGSELADQYVYLCHGERNDA-NH2 / II: GIV[Gla]VCCDNPCTVATLRTFCH (disulfide I:9-II:7, I:21-II:20, II:6-II:11; C-terminus assumed) [Con-Ins G4b]”: the “hIR-B binding, result in words” value is reported as “low nanomolar binding”. Under “I: TNIPATLILQKHRCGSELADQYVQLCH-NH2 / II: GIV[Gla]VCCDNPCTVATLRTFCH (disulfide I:14-II:7, I:26-II:20, II:6-II:11; C-terminus assumed) [Con-Ins G7]” stands “potent hIR-B binding; also recorded: low nanomolar binding”; under “I: NSDTPKHRCVSELADQYVQLCH-NH2 / II: GIV[Gla]VCCDNPCTVATLRTFCH (disulfide I:9-II:7, I:21-II:20, II:6-II:11; C-terminus assumed) [Con-Ins G3c]”, “completely abolishes hIR-B binding”.
